Laboratory results taken from paper PMC12102759 (Protein Science : A Publication of the Protein Society, 2025).

System: PABPC1 PABC
Format: binding, human
Details: DMS-BM library, bait PABPC1 PABC, row aa = residue at this position
[1] = prey ATXN2, peptide KSTLNPNAKEFNPRSF, S = wild type
[2] = prey ATXN2, peptide TLNPNAKEFNPRSFSQ, N = wild type
[3] = prey ATXN2, peptide TLNPNAKEFNPRSFSQ, F = wild type
[4] = prey ATXN2, peptide TLNPNAKEFNPRSFSQ, S = wild type
[5] = prey ATXN2, TLNPNAKEFNPRSF(averaged) over the two overlapping peptides, F = wild type
[6] = prey ATXN2, TLNPNAKEFNPRSF(averaged) over the two overlapping peptides, P = wild type
[7] = prey ATXN2, TLNPNAKEFNPRSF(averaged) over the two overlapping peptides, N = wild type
[8] = prey ATXN2, peptide TLNPNAKEFNPRSFSQ, P = wild type
[9] = prey ATXN2, peptide KSTLNPNAKEFNPRSF, A = wild type
[10] = prey ATXN2, peptide KSTLNPNAKEFNPRSF, F = wild type
[11] = prey ATXN2, peptide KSTLNPNAKEFNPRSF, K = wild type
[12] = prey ATXN2, peptide TLNPNAKEFNPRSFSQ, L = wild type
[13] = prey ATXN2, peptide KSTLNPNAKEFNPRSF, P = wild type
[14] = prey ATXN2, peptide KSTLNPNAKEFNPRSF, N = wild type

KSTLNPNAKEFNPRSF S15W (KSTLNPNAKEFNPRWF)
DMS-derived PSSM value, position S15 [1]: 0.009844

TLNPNAKEFNPRSFSQ N3V (TLVPNAKEFNPRSFSQ)
DMS-derived PSSM value, position N3 [2]: 0

TLNPNAKEFNPRSFSQ F14A (TLNPNAKEFNPRSASQ)
DMS-derived PSSM value, position F14 [3]: 0.01754

TLNPNAKEFNPRSFSQ S13L (TLNPNAKEFNPRLFSQ)
DMS-derived PSSM value, position S13 [4]: 0.06939

TLNPNAKEFNPRSFSQ F14L (TLNPNAKEFNPRSLSQ)
DMS-derived PSSM value, position F14 [3]: 0.08923

KSTLNPNAKEFNPRSF S2M (KMTLNPNAKEFNPRSF)
DMS-derived PSSM value, position S2 [1]: 0.2211

TLNPNAKEFNPRSF(averaged) F9H (TLNPNAKEHNPRSF)
DMS-derived PSSM value (averaged), position F9 [5]: 0

TLNPNAKEFNPRSF(averaged) P11H (TLNPNAKEFNHRSF)
DMS-derived PSSM value (averaged), position P11 [6]: 0.07852

TLNPNAKEFNPRSFSQ F9L (TLNPNAKELNPRSFSQ)
DMS-derived PSSM value, position F9 [3]: 0

TLNPNAKEFNPRSFSQ F9D (TLNPNAKEDNPRSFSQ)
DMS-derived PSSM value, position F9 [3]: 0.002637

TLNPNAKEFNPRSF(averaged) A6L (TLNPNLKEFNPRSF)
DMS-derived PSSM value (averaged), position A6 (prey ATXN2, TLNPNAKEFNPRSF(averaged) over the two overlapping peptides, A = wild type): 0

TLNPNAKEFNPRSF(averaged) F9D (TLNPNAKEDNPRSF)
DMS-derived PSSM value (averaged), position F9 [5]: 0.001318

TLNPNAKEFNPRSFSQ F14M (TLNPNAKEFNPRSMSQ)
DMS-derived PSSM value, position F14 [3]: 0.2558

TLNPNAKEFNPRSF(averaged) N3G (TLGPNAKEFNPRSF)
DMS-derived PSSM value (averaged), position N3 [7]: 0

TLNPNAKEFNPRSFSQ A6H (TLNPNHKEFNPRSFSQ)
DMS-derived PSSM value, position A6 (prey ATXN2, peptide TLNPNAKEFNPRSFSQ, A = wild type): 0

TLNPNAKEFNPRSFSQ T1L (LLNPNAKEFNPRSFSQ)
DMS-derived PSSM value, position T1 (prey ATXN2, peptide TLNPNAKEFNPRSFSQ, T = wild type): 0.1166

TLNPNAKEFNPRSF(averaged) K7S (TLNPNASEFNPRSF)
DMS-derived PSSM value (averaged), position K7 (prey ATXN2, TLNPNAKEFNPRSF(averaged) over the two overlapping peptides, K = wild type): 0.03571

TLNPNAKEFNPRSFSQ R12S (TLNPNAKEFNPSSFSQ)
DMS-derived PSSM value, position R12 (prey ATXN2, peptide TLNPNAKEFNPRSFSQ, R = wild type): 0.1947

TLNPNAKEFNPRSFSQ P11L (TLNPNAKEFNLRSFSQ)
DMS-derived PSSM value, position P11 [8]: 0.02416

KSTLNPNAKEFNPRSF A8T (KSTLNPNTKEFNPRSF)
DMS-derived PSSM value, position A8 [9]: 0

TLNPNAKEFNPRSF(averaged) N10Q (TLNPNAKEFQPRSF)
DMS-derived PSSM value (averaged), position N10 [7]: 0.06161

KSTLNPNAKEFNPRSF F11Q (KSTLNPNAKEQNPRSF)
DMS-derived PSSM value, position F11 [10]: 0

KSTLNPNAKEFNPRSF S2R (KRTLNPNAKEFNPRSF)
DMS-derived PSSM value, position S2 [1]: 0.0005784

KSTLNPNAKEFNPRSF K9N (KSTLNPNANEFNPRSF)
DMS-derived PSSM value, position K9 [11]: 0.1194

TLNPNAKEFNPRSFSQ L2T (TTNPNAKEFNPRSFSQ)
DMS-derived PSSM value, position L2 [12]: 0

TLNPNAKEFNPRSFSQ N10Q (TLNPNAKEFQPRSFSQ)
DMS-derived PSSM value, position N10 [2]: 0.09458

KSTLNPNAKEFNPRSF P6E (KSTLNENAKEFNPRSF)
DMS-derived PSSM value, position P6 [13]: 0

KSTLNPNAKEFNPRSF P13E (KSTLNPNAKEFNERSF)
DMS-derived PSSM value, position P13 [13]: 0.006076

TLNPNAKEFNPRSFSQ K7Q (TLNPNAQEFNPRSFSQ)
DMS-derived PSSM value, position K7 (prey ATXN2, peptide TLNPNAKEFNPRSFSQ, K = wild type): 0.008943

TLNPNAKEFNPRSF(averaged) E8R (TLNPNAKRFNPRSF)
DMS-derived PSSM value (averaged), position E8 (prey ATXN2, TLNPNAKEFNPRSF(averaged) over the two overlapping peptides, E = wild type): 0

TLNPNAKEFNPRSFSQ L2D (TDNPNAKEFNPRSFSQ)
DMS-derived PSSM value, position L2 [12]: 0

KSTLNPNAKEFNPRSF N12F (KSTLNPNAKEFFPRSF)
DMS-derived PSSM value, position N12 [14]: 0.05323

KSTLNPNAKEFNPRSF N12M (KSTLNPNAKEFMPRSF)
DMS-derived PSSM value, position N12 [14]: 0.08333

KSTLNPNAKEFNPRSF P13A (KSTLNPNAKEFNARSF)
DMS-derived PSSM value, position P13 [13]: 0.005231

KSTLNPNAKEFNPRSF N12P (KSTLNPNAKEFPPRSF)
DMS-derived PSSM value, position N12 [14]: 0

KSTLNPNAKEFNPRSF N7K (KSTLNPKAKEFNPRSF)
DMS-derived PSSM value, position N7 [14]: 0.007258

KSTLNPNAKEFNPRSF E10V (KSTLNPNAKVFNPRSF)
DMS-derived PSSM value, position E10 (prey ATXN2, peptide KSTLNPNAKEFNPRSF, E = wild type): 0.1837

TLNPNAKEFNPRSFSQ E8N (TLNPNAKNFNPRSFSQ)
DMS-derived PSSM value, position E8 (prey ATXN2, peptide TLNPNAKEFNPRSFSQ, E = wild type): 0.1259

TLNPNAKEFNPRSF(averaged) P11E (TLNPNAKEFNERSF)
DMS-derived PSSM value (averaged), position P11 [6]: 0.00334

KSTLNPNAKEFNPRSF P13T (KSTLNPNAKEFNTRSF)
DMS-derived PSSM value, position P13 [13]: 0.0002514

TLNPNAKEFNPRSFSQ P4V (TLNVNAKEFNPRSFSQ)
DMS-derived PSSM value, position P4 [8]: 0.4281

KSTLNPNAKEFNPRSF R14S (KSTLNPNAKEFNPSSF)
DMS-derived PSSM value, position R14 (prey ATXN2, peptide KSTLNPNAKEFNPRSF, R = wild type): 0.06387

TLNPNAKEFNPRSF(averaged) F14P (TLNPNAKEFNPRSP)
DMS-derived PSSM value (averaged), position F14 [5]: 0.03538

KSTLNPNAKEFNPRSF N7P (KSTLNPPAKEFNPRSF)
DMS-derived PSSM value, position N7 [14]: 0

TLNPNAKEFNPRSFSQ S13D (TLNPNAKEFNPRDFSQ)
DMS-derived PSSM value, position S13 [4]: 0.05929

KSTLNPNAKEFNPRSF K9L (KSTLNPNALEFNPRSF)
DMS-derived PSSM value, position K9 [11]: 0.07486

TLNPNAKEFNPRSFSQ S13N (TLNPNAKEFNPRNFSQ)
DMS-derived PSSM value, position S13 [4]: 0.07115

TLNPNAKEFNPRSF(averaged) N10E (TLNPNAKEFEPRSF)
DMS-derived PSSM value (averaged), position N10 [7]: 0.03135

TLNPNAKEFNPRSF(averaged) F9I (TLNPNAKEINPRSF)
DMS-derived PSSM value (averaged), position F9 [5]: 0

TLNPNAKEFNPRSFSQ P4F (TLNFNAKEFNPRSFSQ)
DMS-derived PSSM value, position P4 [8]: 0.01173

KSTLNPNAKEFNPRSF N12H (KSTLNPNAKEFHPRSF)
DMS-derived PSSM value, position N12 [14]: 0.04066

TLNPNAKEFNPRSFSQ N10K (TLNPNAKEFKPRSFSQ)
DMS-derived PSSM value, position N10 [2]: 0.01052

KSTLNPNAKEFNPRSF A8L (KSTLNPNLKEFNPRSF)
DMS-derived PSSM value, position A8 [9]: 0

KSTLNPNAKEFNPRSF T3L (KSLLNPNAKEFNPRSF)
DMS-derived PSSM value, position T3 (prey ATXN2, peptide KSTLNPNAKEFNPRSF, T = wild type): 0.01491

TLNPNAKEFNPRSFSQ N5G (TLNPGAKEFNPRSFSQ)
DMS-derived PSSM value, position N5 [2]: 0.01384

TLNPNAKEFNPRSFSQ S13A (TLNPNAKEFNPRAFSQ)
DMS-derived PSSM value, position S13 [4]: 0.2244

KSTLNPNAKEFNPRSF F16E (KSTLNPNAKEFNPRSE)
DMS-derived PSSM value, position F16 [10]: 0.01536

TLNPNAKEFNPRSFSQ N10A (TLNPNAKEFAPRSFSQ)
DMS-derived PSSM value, position N10 [2]: 0.03895

TLNPNAKEFNPRSFSQ F9K (TLNPNAKEKNPRSFSQ)
DMS-derived PSSM value, position F9 [3]: 0

TLNPNAKEFNPRSFSQ N3S (TLSPNAKEFNPRSFSQ)
DMS-derived PSSM value, position N3 [2]: 0.4554

KSTLNPNAKEFNPRSF L4T (KSTTNPNAKEFNPRSF)
DMS-derived PSSM value, position L4 (prey ATXN2, peptide KSTLNPNAKEFNPRSF, L = wild type): 0

TLNPNAKEFNPRSFSQ F9E (TLNPNAKEENPRSFSQ)
DMS-derived PSSM value, position F9 [3]: 0.05407
